Source: US11590139B2, “Substituted aminopurine compounds, compositions thereof, and methods of treatment therewith” (Signal Pharmaceuticals, LLC, priority 2014, dated 2023)

test system: Lox-IMVI melanoma cell line; assay: Lox-IMVI anti-proliferative assay (growth inhibition, Cell Titer-Glo); type: cell-based, human; conditions: Homo sapiens; IC50 activity level in the cell-based Lox-IMVI anti-proliferative assay; read-out: Activity
Experimental: Determination of the Growth Inhibitory Effect of Aminopurine Compounds. The Lox-IMVI melanoma cell line (Source: NCI-DCTD, catalog No. 0507283) was maintained and tested in RPMI+10% FBS. The seeding density for the cell line was optimized to ensure assay linearity in 384-well plates.
Increasing concentrations of Aminopurine Compound (0.5 nM to 10 μM) were spotted in a 10-point serial dilution fashion (3-fold dilution) in duplicate within the plate via an acoustic dispenser (EDC ATS-100) into an empty 384-well plate. The dimethyl sulfoxide (DMSO) concentration was kept constant for a final assay concentration of 0.2% DMSO. Prior to testing, cells were grown and expanded in culture flasks to provide sufficient amounts of starting material. Cells were then diluted to their desired densities and added directly to the compound-spotted 384-well plates. Cells were allowed to grow for 72 hours in 5% CO2 at 37° C. At the time when exposure of cells to compound began (t0), initial cell number was assessed via a viability assay (Cell Titer-Glo) by quantifying the level of luminescence generated by adenosine-5′-triphosphate (ATP) present in viable cells. After 72 hours, cell viability of compound-treated cells was assessed via Cell Titer-Glo Luminescent Cell Viability Assay (Promega Corporation, Madison, Wis.) and read for luminescence.
All data was normalized and represented as a percentage of the DMSO-treated control cells after 72 h. Results were expressed as a IC50 value, which is the compound concentration required to inhibit 50% of the untreated control cells during the 72 hours of treatment.
A Four Parameter Logistic Model (Sigmoidal Dose-Response Model) was used to determine the compound's IC50. y=(A+((B−A)/(1+((C/x)^D))))
wherein: • A=YMin • B=YMax • C=EC50 • D=Hill Slope • IC50 is the compound concentration when Y=50% of DMSO control • Y=Luminescence unit
All inhibition curves were processed and evaluated using XLFit and Activity Base (IDBS).

SMILES | IC50 [nM]
Cc1c(Cl)ccc(Nc2nc3cnc(NC4CCOCC4)nc3n2[C@H]2CC[C@@H](C(N)=O)CC2)c1F [Example 102, (1s,4s)-4-(8-(4-chloro-2-fluoro-3-methylphenylamino)-2-(tetrahydro-2H-pyran-4-ylamino)-9H-purin-9-yl)cyclohexanecarboxamide] | > 1000
Cc1cc(Cl)cc(Cl)c1Nc1nc2cnc(NC3CCOCC3)nc2n1[C@H]1CC[C@@H](C(N)=O)CC1 [Example 103, (1s,4s)-4-(8-(2,4-dichloro-6-methylphenylamino)-2-(tetrahydro-2H-pyran-4-ylamino)-9H-purin-9-yl)cyclohexanecarboxamide] | > 1000
NC(=O)[C@H]1CC[C@@H](n2c(Nc3c(F)ccc(Cl)c3Cl)nc3cnc(NC4CCOCC4)nc32)CC1 [Example 104, (1s,4s)-4-(8-(2,3-dichloro-6-fluorophenylamino)-2-(tetrahydro-2H-pyran-4-ylamino)-9H-purin-9-yl)cyclohexanecarboxamide] | 250 to 500
NC(=O)[C@H]1CC[C@@H](n2c(Nc3cc(F)c(Cl)cc3Cl)nc3cnc(NC4CCOCC4)nc32)CC1 [Example 105, (1s,4s)-4-(8-(2,4-dichloro-5-fluorophenylamino)-2-(tetrahydro-2H-pyran-4-ylamino)-9H-purin-9-yl)cyclohexanecarboxamide] | > 1000
Cc1cc(F)c(Nc2nc3cnc(NC4CCOCC4)nc3n2[C@H]2CC[C@@H](C(N)=O)CC2)cc1F [Example 106, (1s,4s)-4-(8-(2,5-difluoro-4-methylphenylamino)-2-(tetrahydro-2H-pyran-4-ylamino)-9H-purin-9-yl)cyclohexanecarboxamide] | > 1000
NC(=O)[C@H]1CC[C@@H](n2c(Nc3c(F)cccc3Cl)nc3cnc(NC4CCN(c5cccnc5)CC4)nc32)CC1 [Example 107, (1s,4s)-4-(8-(2-chloro-6-fluorophenylamino)-2-(1-(pyridin-3-yl)piperidin-4-ylamino)-9H-purin-9-yl)cyclohexanecarboxamide] | > 1000
NC(=O)[C@H]1CC[C@@H](n2c(Nc3c(F)cccc3Cl)nc3cnc(NC4CCN(c5ccccc5)CC4)nc32)CC1 [Example 108, (1s,4s)-4-(8-(2-chloro-6-fluorophenylamino)-2-(1-phenylpiperidin-4-ylamino)-9H-purin-9-yl)cyclohexanecarboxamide] | > 1000
NC(=O)[C@H]1CC[C@@H](n2c(Nc3c(Cl)cc(Cl)cc3Cl)nc3cnc(NCC(F)(F)F)nc32)CC1 [Example 109, (1s,4s)-4-(8-(2,4,6-trichlorophenylamino)-2-(2,2,2-trifluoroethylamino)-9H-purin-9-yl)cyclohexanecarboxamide] | > 1000
NC(=O)[C@H]1CC[C@@H](n2c(Nc3c(Cl)cc(Cl)cc3Cl)nc3cnc(NCC4CCC4)nc32)CC1 [Example 110, (1s,4s)-4-(2-(cyclobutylmethylamino)-8-(2,4,6-trichlorophenylamino)-9H-purin-9-yl)cyclohexanecarboxamide] | 500 to 1000
NC(=O)[C@H]1CC[C@@H](n2c(Nc3c(Cl)cc(Cl)cc3Cl)nc3cnc(N[C@@H]4CCCOC4)nc32)CC1 [Example 111, (1S,4s)-4-(2-((R)-tetrahydro-2H-pyran-3-ylamino)-8-(2,4,6-trichlorophenylamino)-9H-purin-9-yl)cyclohexanecarboxamide] | > 1000
NC(=O)[C@H]1CC[C@@H](n2c(Nc3ccc(Cl)c(Cl)c3F)nc3cnc(NC4CCOCC4)nc32)CC1 [Example 112, (1s,4s)-4-(8-(3,4-dichloro-2-fluorophenylamino)-2-(tetrahydro-2H-pyran-4-ylamino)-9H-purin-9-yl)cyclohexanecarboxamide] | 250 to 500
NC(=O)[C@H]1CC[C@@H](n2c(Nc3c(Cl)ccc(F)c3F)nc3cnc(NC4CCOCC4)nc32)CC1 [Example 113, (1s,4s)-4-(8-(6-chloro-2,3-difluorophenylamino)-2-(tetrahydro-2H-pyran-4-ylamino)-9H-purin-9-yl)cyclohexanecarboxamide] | 500 to 1000
CS(=O)(=O)N1CCC(Nc2ncc3nc(Nc4c(F)cccc4Cl)n([C@H]4CC[C@@H](C(N)=O)CC4)c3n2)CC1 [Example 114, (1s,4s)-4-(8-(2-chloro-6-fluorophenylamino)-2-(1-(methylsulfonyl)piperidin-4-ylamino)-9H-purin-9-yl)cyclohexanecarboxamide] | > 1000
Cc1cc(F)c(Nc2nc3cnc(NC4CCOCC4)nc3n2[C@H]2CC[C@@H](C(N)=O)CC2)c(F)c1 [Example 115, (1s,4s)-4-(8-(2,6-difluoro-4-methylphenylamino)-2-(tetrahydro-2H-pyran-4-ylamino)-9H-purin-9-yl)cyclohexanecarboxamide] | 500 to 1000
Cc1cc(Cl)c(Nc2nc3cnc(NC4CCOCC4)nc3n2[C@H]2CC[C@@H](C(N)=O)CC2)c(Cl)c1 [Example 116, (1s,4s)-4-(8-(2,6-dichloro-4-methylphenylamino)-2-(tetrahydro-2H-pyran-4-ylamino)-9H-purin-9-yl)cyclohexanecarboxamide] | > 1000
NC(=O)[C@H]1CC[C@@H](n2c(Nc3c(F)cc(F)cc3Cl)nc3cnc(NC4CCC4)nc32)CC1 [Example 117, (1s,4s)-4-(8-(2-chloro-4,6-difluorophenylamino)-2-(cyclobutylamino)-9H-purin-9-yl)cyclohexanecarboxamide] | 500 to 1000
NC(=O)[C@H]1CC[C@@H](n2c(Nc3c(Cl)cc(F)cc3Cl)nc3cnc(NC4CCC4)nc32)CC1 [Example 118, (1s,4s)-4-(2-(cyclobutylamino)-8-(2,6-dichloro-4-fluorophenylamino)-9H-purin-9-yl)cyclohexanecarboxamide] | 500 to 1000
NC(=O)[C@H]1CC[C@@H](n2c(Nc3c(F)cc(F)cc3Cl)nc3cnc(NC4CCCC4)nc32)CC1 [Example 119, (1s,4s)-4-(8-(2-chloro-4,6-difluorophenylamino)-2-(cyclopentylamino)-9H-purin-9-yl)cyclohexanecarboxamide] | 250 to 500
NC(=O)[C@H]1CC[C@@H](n2c(Nc3c(F)cc(Cl)cc3F)nc3cnc(NC4CCCC4)nc32)CC1 [Example 120, (1s,4s)-4-(8-(4-chloro-2,6-difluorophenylamino)-2-(cyclopentylamino)-9H-purin-9-yl)cyclohexanecarboxamide] | 250 to 500
NC(=O)[C@H]1CC[C@@H](n2c(Nc3c(Cl)cc(F)cc3Cl)nc3cnc(NC4CCCC4)nc32)CC1 [Example 121, (1s,4s)-4-(2-(cyclopentylamino)-8-(2,6-dichloro-4-fluorophenylamino)-9H-purin-9-yl)cyclohexanecarboxamide] | 500 to 1000
NC(=O)[C@H]1CC[C@@H](n2c(Nc3c(F)cc(Cl)cc3Cl)nc3cnc(NC4CCCC4)nc32)CC1 [Example 122, (1s,4s)-4-(2-(cyclopentylamino)-8-(2,4-dichloro-6-fluorophenylamino)-9H-purin-9-yl)cyclohexanecarboxamide] | 250 to 500
CC(C)Nc1ncc2nc(Nc3c(Cl)cc(F)cc3Cl)n([C@H]3CC[C@@H](C(N)=O)CC3)c2n1 [Example 123, (1s,4s)-4-(8-(2,6-dichloro-4-fluorophenylamino)-2-(isopropylamino)-9H-purin-9-yl)cyclohexanecarboxamide] | 500 to 1000
CC(C)Nc1ncc2nc(Nc3c(F)cc(Cl)cc3F)n([C@H]3CC[C@@H](C(N)=O)CC3)c2n1 [Example 124, (1s,4s)-4-(8-(4-chloro-2,6-difluorophenylamino)-2-(isopropylamino)-9H-purin-9-yl)cyclohexanecarboxamide] | > 1000
CC(C)Nc1ncc2nc(Nc3c(F)cc(F)cc3Cl)n([C@H]3CC[C@@H](C(N)=O)CC3)c2n1 [Example 125, (1s,4s)-4-(8-(2-chloro-4,6-difluorophenylamino)-2-(isopropylamino)-9H-purin-9-yl)cyclohexanecarboxamide] | 500 to 1000
CC[C@H](CO)Nc1ncc2nc(Nc3c(Cl)cc(F)cc3Cl)n([C@H]3CC[C@@H](C(N)=O)CC3)c2n1 [Example 126, (1S,4s)-4-(8-(2,6-dichloro-4-fluorophenylamino)-2-((R)-1-hydroxybutan-2-ylamino)-9H-purin-9-yl)cyclohexanecarboxamide] | > 1000
CC(C)(C)OC(=O)N1CC[C@H](Nc2ncc3nc(Nc4c(F)cc(F)cc4F)n([C@H]4CC[C@@H](C(N)=O)CC4)c3n2)[C@H](F)C1 [Example 127, (3R,4S)-tert-butyl 4-(9-((1s,4R)-4-carbamoylcyclohexyl)-8-(2,4,6-trifluorophenylamino)-9H-purin-2-ylamino)-3-fluoropiperidine-1-carboxylate] | > 1000
CC(C)(C)OC(=O)N1CC[C@H](Nc2ncc3nc(Nc4c(F)cccc4F)n([C@H]4CC[C@@H](C(N)=O)CC4)c3n2)[C@H](F)C1 [Example 128, (3R,4S)-tert-butyl 4-(9-((1s,4R)-4-carbamoylcyclohexyl)-8-(2,6-difluorophenylamino)-9H-purin-2-ylamino)-3-fluoropiperidine-1-carboxylate] | > 1000
